# Experimental data from patent US8889704B2 (Array BioPharma Inc., priority 2011, dated 2014).
# Counter-ions that a name gives are not always drawn.
# Assays:
# Assay type in all cases: biochemical
# [1] = target: T1, GST-tagged recombinant full-length human Pim-2 (Homo sapiens, UniProt Q9P1W9); test: PIM-2 Assay (as Example A); details: averaged IC50; 4 μM ATP, 1.0 μM PIM2tide, 1.5 nM Pim-2
# T1 construct: GST-tagged recombinant full-length human Pim-2; GST
# How it was run: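 IC50 was derived by 4-parameter logistic fitting of percent-of-control data over a 10-point, 3-fold series (highest 10 μM, 2% DMSO). Reactions held 1.5 nM GST-Pim-2 (full-length, human), 4 μM [γ-33P]ATP and 1.0 μM PIM2tide for 60 min at 22 °C, pH 7.4; 33P-peptide captured on P81 filters.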
# PIM-1 = PIM-1 (Homo sapiens, UniProt P11309); test: Enzyme PIM-1 Assay ([33P]ATP incorporation into PIM2tide, filter plate); details: averaged IC50; 35 μM ATP, 7.5 μM PIM2tide, 0.25 nM PIM-1, 60 min at 22° C.
# How it was run: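 Ten-point, 3-fold dilution series (10 μM top, 2% DMSO final) tested for inhibition of 33P transfer from 35 μM ATP to 7.5 μM PIM2tide by 0.25 nM PIM-1. Reaction 60 min, 22 °C, pH 7.4 MOPS/MgCl2 buffer; phosphocellulose capture, scintillation counting, IC50 where fitted POC equals 50.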
# recombinant rat PIM-3 = recombinant rat PIM-3 (Rattus norvegicus, UniProt O70444); test: PIM-3 Assay (as Example A); details: averaged IC50; 30 μM ATP, 3.75 μM PIM2tide, 0.5 nM PIM-3
# How it was run: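 33P incorporation from 30 μM [γ-33P]ATP into 3.75 μM PIM2tide by 0.5 nM rat PIM-3, 60 min at 22 °C in pH 7.4 MOPS buffer, read by P81 filter capture and scintillation counting. Compounds tested in 3-fold dilutions up to 10 μM final, 2% DMSO; percent-of-control data fitted by 4-parameter logistic for IC50.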
# T1 sequence (Q9P1W9 whole entry): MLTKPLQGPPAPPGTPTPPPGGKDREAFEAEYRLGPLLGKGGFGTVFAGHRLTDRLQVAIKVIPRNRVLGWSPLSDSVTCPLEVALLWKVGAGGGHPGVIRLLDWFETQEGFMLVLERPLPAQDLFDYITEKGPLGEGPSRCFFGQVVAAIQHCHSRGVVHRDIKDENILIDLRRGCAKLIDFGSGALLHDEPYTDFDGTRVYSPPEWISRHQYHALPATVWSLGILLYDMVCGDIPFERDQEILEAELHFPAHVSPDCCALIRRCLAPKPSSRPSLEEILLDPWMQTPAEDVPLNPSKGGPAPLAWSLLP
# PIM-1, sequence (P11309 whole entry, species assumed): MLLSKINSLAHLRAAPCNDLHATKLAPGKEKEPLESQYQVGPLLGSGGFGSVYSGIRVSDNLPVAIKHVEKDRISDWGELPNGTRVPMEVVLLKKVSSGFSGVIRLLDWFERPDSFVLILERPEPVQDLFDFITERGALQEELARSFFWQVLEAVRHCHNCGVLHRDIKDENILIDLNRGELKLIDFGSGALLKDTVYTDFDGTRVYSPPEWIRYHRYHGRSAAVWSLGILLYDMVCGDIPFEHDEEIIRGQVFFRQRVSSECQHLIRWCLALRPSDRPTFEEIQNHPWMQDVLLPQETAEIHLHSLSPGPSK
SMILES,IC50 [1],IC50 (PIM-1),IC50 (recombinant rat PIM-3)
"C[C@H](CO)Oc1cccc2ccc(-c3nnc4ccc([C@@H](N5CC[C@H](N)C5)C(F)(F)F)cn34)nc12 [Example 186, (R)-2-(2-(6-((R)-1-((S)-3-aminopyrrolidin-1-yl)-2,2,2-trifluoroethyl)-[1,2,4]triazolo[4,3-a]pyridin-3-yl)quinolin-8-yloxy)propan-1-ol dihydrochloride]",67 nM,0.16 nM,0.4 nM
"CC(C)Oc1cccc2ccc(-c3nnc4ccc([C@@H](N5CC[C@](N)(CO)C5)C(F)(F)F)cn34)nc12 [Example 188, ((R)-3-amino-1-((R)-2,2,2-trifluoro-1-(3-(8-isopropoxyquinolin-2-yl)-[1,2,4]triazolo[4,3-a]pyridin-6-yl)ethyl)pyrrolidin-3-yl)methanol dihydrochloride]",111 nM,0.3 nM,1 nM
"CC(C)(C)c1cccc2ccc(-c3nnc4ccc([C@@H](N5CC[C@](N)(CO)C5)C(F)(F)F)cn34)nc12 [Example 189, ((R)-3-amino-1-((R)-1-(3-(8-tert-butylquinolin-2-yl)-[1,2,4]triazolo[4,3-a]pyridin-6-yl)-2,2,2-trifluoroethyl)pyrrolidin-3-yl)methanol dihydrochloride]",85 nM,0.57 nM,1.5 nM
"CC1(COc2cccc3ccc(-c4nnc5ccc([C@@H](N6CC[C@H](N)C6)C(F)(F)F)cn45)nc23)COC1 [Example 192, (S)-1-((R)-2,2,2-trifluoro-1-(3-(8-(3-methyloxetan-3-yl)methoxy)quinolin-2-yl)-[1,2,4]triazolo[4,3-a]pyridin-6-yl)ethyl)pyrrolidin-3-amine diformate]",80 nM,0.17 nM,0.5 nM
"CC(C)Oc1cccc2ccc(-c3nnc4ccc([C@@H](N5CCC(N)(CO)C5)C(F)(F)F)cn34)nc12 (stereo partly drawn) [Example 197, (3-amino-1-((R)-2,2,2-trifluoro-1-(3-(8-isopropoxyquinolin-2-yl)-[1,2,4]triazolo[4,3-a]pyridin-6-yl)ethyl)pyrrolidin-3-yl)methanol dihydrochloride]",150 nM,0.3 nM,0.9 nM
"CC1(COc2ccc3ccc(-c4nnc5ccc([C@@H](N6CC[C@H](N)C6)C(F)(F)F)cn45)nc3c2)COC1 [Example 198, (S)-1-((R)-2,2,2-trifluoro-1-(3-(7-((3-methyloxetan-3-yl)methoxy)quinolin-2-yl)-[1,2,4]triazolo[4,3-a]pyridin-6-yl)ethyl)pyrrolidin-3-amine diformate]",123 nM,0.14 nM,0.2 nM
"COc1cc2nc(-c3nnc4ccc([C@@H](N5C[C@@H](N)[C@@H](F)C5)C(F)(F)F)cn34)ccc2cc1F [Example 210, (3R,4S)-4-fluoro-1-((R)-2,2,2-trifluoro-1-(3-(6-fluoro-7-methoxyquinolin-2-yl)-[1,2,4]triazolo[4,3-a]pyridin-6-yl)ethyl)pyrrolidin-3-amine dihydrochloride]",> 1000 nM,> 100 nM,> 100 nM
"COc1cc2nc(-c3nnc4ccc([C@@H](N5C[C@@H](N)[C@H](F)C5)C(F)(F)F)cn34)ccc2cc1F [Example 211, (3R,4R)-4-fluoro-1-((R)-2,2,2-trifluoro-1-(3-(6-fluoro-7-methoxyquinolin-2-yl)-[1,2,4]triazolo[4,3-a]pyridin-6-yl)ethyl)pyrrolidin-3-amine dihydrochloride]",645 nM,0.52 nM,4 nM
"CO[C@@H](C)COc1cccc2ccc(-c3nnc4ccc([C@@H](N5CC[C@H](N)C5)C(F)(F)F)cn34)nc12 [Example 212, (S)-1-((R)-2,2,2-trifluoro-1-(3-(8-((S)-2-methoxypropoxy)quinolin-2-yl)-[1,2,4]triazolo[4,3-a]pyridin-6-yl)ethyl)pyrrolidin-3-amine dihydrochloride]",72 nM,0.14 nM,0.3 nM

# Results, then the compound that gave them:
IC50 [1],IC50 (PIM-1),IC50 (recombinant rat PIM-3),SMILES
> 100 nM,0.37 nM,1 nM,"COCc1cccc2ccc(-c3nnc4ccc([C@@H](N5CC[C@H](N)C5)C(F)(F)F)cn34)nc12 [Example 185, (S)-1-((R)-2,2,2-trifluoro-1-(3-(8-(methoxymethyl)quinolin-2-yl)-[1,2,4]triazolo[4,3-a]pyridin-6-yl)ethyl)pyrrolidin-3-amine dihydrochloride]"
> 100 nM,0.37 nM,0.9 nM,"C[C@H](O)COc1cccc2ccc(-c3nnc4ccc([C@@H](N5CC[C@H](N)C5)C(F)(F)F)cn34)nc12 [Example 187, (S)-1-(2-(6-((R)-1-((S)-3-aminopyrrolidin-1-yl)-2,2,2-trifluoroethyl)-[1,2,4]triazolo[4,3-a]pyridin-3-yl)quinolin-8-yloxy)propan-2-ol dihydrochloride]"
> 100 nM,1.03 nM,1 nM,"Cc1cnn(-c2ccc3ccc(-c4nnc5ccc([C@@H](N6CC[C@H](N)C6)C(F)(F)F)cn45)nc3c2C)c1 [Example 190, (S)-1-((R)-2,2,2-trifluoro-1-(3-(8-methyl-7-(4-methyl-1H-pyrazol-1-yl)quinolin-2-yl)-[1,2,4]triazolo[4,3-a]pyridin-6-yl)ethyl)pyrrolidin-3-amine dihydrochloride]"
74 nM,0.2 nM,0.2 nM,"Cc1c(-c2cnn(C)c2)ccc2ccc(-c3nnc4ccc([C@@H](N5CC[C@H](N)C5)C(F)(F)F)cn34)nc12 [Example 191, (S)-1-((R)-2,2,2-trifluoro-1-(3-(8-methyl-7-(1-methyl-1H-pyrazol-4-yl)quinolin-2-yl)-[1,2,4]triazolo[4,3-a]pyridin-6-yl)ethyl)pyrrolidin-3-amine dihydrochloride]"
> 1000 nM,0.48 nM,3 nM,"Cc1cc(-c2cc3nc(-c4nnc5ccc([C@@H](N6CC[C@H](N)C6)C(F)(F)F)cn45)ccc3cc2F)n(C)n1 [Example 204, (3 S)-1-((1R)-1-(3-(7-(1,3-dimethyl-1H-pyrazol-5-yl)-6-fluoroquinolin-2-yl)-[1,2,4]triazolo[4,3-a]pyridin-6-yl)-2,2,2-trifluoroethyl)pyrrolidin-3-amine dihydrochloride]"
244 nM,0.14 nM,0.2 nM,"Cc1nn(C)cc1-c1cc2nc(-c3nnc4ccc([C@@H](N5CC[C@H](N)C5)C(F)(F)F)cn34)ccc2cc1F [Example 205, (3 S)-1-((1R)-1-(3-(7-(1,3-dimethyl-1H-pyrazol-4-yl)-6-fluoroquinolin-2-yl)-[1,2,4]triazolo[4,3-a]pyridin-6-yl)-2,2,2-trifluoroethyl)pyrrolidin-3-amine dihydrochloride]"
55 nM,0.09 nM,0.1 nM,"Cc1c(-c2cc3nc(-c4nnc5ccc([C@@H](N6CC[C@H](N)C6)C(F)(F)F)cn45)ccc3cc2F)cnn1C [Example 206, (3 S)-1-((1R)-1-(3-(7-(1,5-dimethyl-1H-pyrazol-4-yl)-6-fluoroquinolin-2-yl)-[1,2,4]triazolo[4,3-a]pyridin-6-yl)-2,2,2-trifluoroethyl)pyrrolidin-3-amine dihydrochloride]"
> 1000 nM,0.41 nM,2.5 nM,"N[C@H]1CCN([C@H](c2ccc3nnc(-c4ccc5cccc(O)c5n4)n3c2)C(F)(F)F)C1 [Example 208, 2-(6-((R)-1-((S)-3-aminopyrrolidin-1-yl)-2,2,2-trifluoroethyl)-[1,2,4]triazolo[4,3-a]pyridin-3-yl)quinolin-8-ol dihydrochloride]"
176 nM,0.55 nM,0.6 nM,"Cc1c(C(=O)NC(C)C)ccc2ccc(-c3nnc4ccc([C@@H](N5CC[C@H](N)C5)C(F)(F)F)cn34)nc12 [Example 209, 2-(6-((R)-1-((S)-3-aminopyrrolidin-1-yl)-2,2,2-trifluoroethyl)-[1,2,4]triazolo[4,3-a]pyridin-3-yl)-N-isopropyl-8-methylquinoline-7-carboxamide]"
> 1000 nM,0.64 nM,8 nM,"Cc1cc(-c2ccc3ccc(-c4nnc5ccc([C@@H](N6CC[C@H](N)C6)C(F)(F)F)cn45)nc3c2C)n(C)n1 [Example 213, (3S)-1-((1R)-1-(3-(7-(1,3-dimethyl-1H-pyrazol-5-yl)-8-methylquinolin-2-yl)-[1,2,4]triazolo[4,3-a]pyridin-6-yl)-2,2,2-trifluoroethyl)pyrrolidin-3-amine]"
138 nM,0.38 nM,0.4 nM,"Cc1c(-c2cnn(C)c2C)ccc2ccc(-c3nnc4ccc([C@@H](N5CC[C@H](N)C5)C(F)(F)F)cn34)nc12 [Example 214, (3S)-1-((1R)-1-(3-(7-(1,5-dimethyl-1H-pyrazol-4-yl)-8-methylquinolin-2-yl)-[1,2,4]triazolo[4,3-a]pyridin-6-yl)-2,2,2-trifluoroethyl)pyrrolidin-3-amine dihydrochloride]"
